As a reminder, the IC50 is the concentration that inhibits the measured activity by half. What is called MIC is the least concentration at which growth counts as inhibited.

The source of these data is patent US10898421B2, “Anti-dandruff composition comprising pycnidione and epolone” (Croda International PLC, priority 2015, dated 2021).

The subject of data set [1] is Malassezia furfur (ATCC #38593). The data set is described as follows: Anti-fungal activity against Malassezia furfur (96 well broth assay, Alamar blue). It counts as cell-based. The settings on record: ATCC38593, 120 h; for IC50: read-out: M. furfur IC50; for MIC: visible growth. Here is the method:
The terms Minimum Inhibitory Concentration and Half Maximal Inhibitory Concentration will be understood to have the following meanings. • Minimum Inhibitory Concentration (MIC) The minimum inhibitory concentration (MIC) will be understood to represent the lowest concentration of an anti-microbial that will inhibit the visible growth of a microorganism after overnight incubation. • Half Maximal Inhibitory Concentration (IC50) The half maximal inhibitory concentration (IC50) is a measure of the effectiveness of a substance in inhibiting a spec biological or biochemical function. This quantitative measure indicates how much of a particular drug or other substance (inhibitor) is needed to inhibit a given biological process (or component of a process, i.e. an enzyme, cell, cell receptor or microorganism) by half. IC50 represents the concentration of an active that is required for 50% inhibition in-vitro.
Malassezia furfur (ATCC #38593) was cultured on Media C agar for 7 days at 37° C. Yeast colonies were then harvested into 0.9% saline sterile diH2O and diluted to approximately 1.5×10^6 CFU/mL using a 0.5 MacFarland standard (Fisher #R20410) to create an assay inoculum. Assay inoculum was added to sterile Media C broth to a final concentration of 4.5×10^4 CFU/mL. Assays were carried out in 96 well plates with a final well volume of 100 μL.
Extract fractions and pure compounds were tested in triplicate against each organism. Extract fractions and pure compounds were re-suspended in sterile 20% DMSO.
Each plate contained eight un-inoculated positive controls (media+20% DMSO), eight untreated negative controls (Media+20% DMSO+organism), and one column containing a concentration range of a ketoconazole as a control antibiotic. The assay plate was incubated at 37° C. for 5 days after which growth within the wells were visualised and photographed with a UVP Biospectrum 500 imaging system. Alamar blue was then added to each well at 10% of the culture volume (11 μL in 100 μL). Fluorescence was monitored using a BioTek Synergy HT plate reader at 530/25 excitation, 590/35 emission and 35 sensitivity at both time zero and 4 hours after Alamar blue was added. After subtracting the time zero emission 590 nm measurement from the final reading the inferred percentage of microorganism survival relative to vehicle control wells were calculated and the IC50 was determined.
On the technique in general: The colour change of resazurin is a common sign of viable cells or microbes.

A short description of data set [2]: Cytotoxicity against keratinocyte cells (Alamar blue). It counts as cell-based, human. Particulars: human. Here is the method:
(§1) Adult human epidermal keratinocytes (Heka) isolated from skin (Invitrogen #C-005-5C) were grown and maintained in 15 mL of EPilife medium (Invitrogen #M-EPI-500) supplemented with HKGS growth supplements (Invitrogen #S-001-5) (0.2% v/v bovine pituitary extract (BPE), 5 μg/mL bovine insulin, 0.18 μg/mL hydrocortisone, 5 μg/mL bovine transferrin, 0.2 ng/mL human epidermal growth factor) and 50 μg/mL gentamicin (Sigma #G1397-10ML) in T75 cm2 cell culture flasks (VWR #CABD353136) and incubated at 37° C. in a humidified atmosphere of 5% CO2. Growth medium was refreshed every 2 days until the cells reached 50% confluency and then the medium was refreshed every 24 hours until 80% confluency was obtained.
(§2) At 80% confluency, the cells were counted, diluted and plated into 96 well treated cell culture plates (VWR #29442-054) at a cell density of 10000 cells per well in 90 μL of respective growth medium. All media used for the assay were the same without the addition of antibiotics. The plates were incubated at 37° C. in a humidified atmosphere of 5% CO2 to allow cells to adhere to the plates for 24 hrs before treatment. DMSO was used as the vehicle at a final concentration of 1% in the wells.
(§3) All compounds to be tested were resolublised in sterile DMSO (Sigma #D2438) and a dilution series was prepared for each cell line using the respective cell culture growth medium of which 10 μL were added to the respective assay plate well yielding eight final concentrations ranging from 128 μg/mL to 1 μg/mL per well (final well volume of 100 μL) and incubated at 37° C. in a humidified atmosphere of 5% CO2 for 24 hrs.
(§4) All samples were tested in triplicate. Each plate contained eight un-inoculated positive controls (media+20% DMSO), eight untreated negative controls (Media+20% DMSO+cells). Alamar blue (Invitrogen #Dal1100) was added, 24 hrs after treatment, to each well at 10% of the culture volume (11 μL in 100 μL). Fluorescence was monitored using a BioTek Synergy HT plate reader at 530/25 excitation, 590/35 emission and 35 sensitivity at both time zero and 4 hrs after Alamar blue was added. After subtracting the time zero emission 590 nm measurement from the final reading the inferred percentage of microorganism survival relative to vehicle control wells were calculated and the IC50 was determined.

Data set [3] deals with Adult human epidermal keratinocytes (Heka). The data set is described as above. It counts as cell-based. The settings on record: for Keratinocyte MIC: 24 hrs treatment. As to the method: as §1, §2, §3, §4
Data set [4] is described as follows: Cytotoxicity against fibroblast cells (Alamar blue). It counts as cell-based, human. The settings on record: human, 24 hrs treatment, Alamar blue, read-out: Fibroblast IC50. Here is the method:
(§5) Human foreskin BJ fibroblast cells (ATCC CRL-2522) were grown and maintained in 15 mL of Eagle's minimal essential medium (Sigma M5650) supplemented with 10% fetal bovine serum (VWR #CA95043-976) and 100 μU penicillin and 0.1 mg/mL streptomycin (VWR #CA12001-692) in T75 cm2 cell culture flasks (VWR #CABD353136) at 37° C. in a humidified atmosphere of 5% CO2. Culture medium was refreshed every two to three days and cells were not allowed to exceed 80% confluency.
as §2, §3, §4

Data set [5] has as its system Human foreskin BJ fibroblast cells (ATCC CRL-2522). The data set is described as above. It counts as cell-based. Particulars: for Fibroblast MIC: 24 hrs treatment. As to the method: as §5, §2, §3, §4
Data set [6] in a line: Stability of pycnidione formulated in off-the-shelf shampoo composition. It counts as physicochemical. The settings on record: J&J baby shampoo, after a two month period.
[7] abbreviates: adult human epidermal keratinocytes (Heka), 24 hrs treatment, Alamar blue, read-out: Keratinocyte IC50.
[8] abbreviates: human foreskin BJ fibroblast cells (ATCC CRL-2522).
The mark [9] stands for this setting: at 8 μg/ml, where inhibition of Malassezia yeasts is retained.

Where two headings read alike, the source gives them in different places.

As to `Cc1cc(=O)c(O)cc2c1C[C@H]1CC(C)(C)/C=C/C[C@@]3(C)Oc4cc(O)cc(C)c4C[C@@H]3C[C@H](O)[C@]1(C)O2` [Epolone A, epolone A], in data set [1] (37° C., 5 days, Alamar blue), the IC50 was 48 µg/mL. In addition, the MIC in data set [1] (37° C., 5 days) is 64 µg/mL. In addition, the CC50 at 24 h in data set [2] (setting [7]) is 13 µg/mL; in data set [4] (setting [8]), 14 µg/mL. For the same molecule, the “Keratinocyte MIC” value in data set [3] is 32 µg/mL. For the same molecule, in data set [5], the “Fibroblast MIC” value is 32 µg/mL.

As for `C/C1=C\CC(C)(C)/C=C/C[C@@]2(C)Oc3cc(O)c(=O)cc(C)c3C[C@@H]2C[C@H]1O` [Epolone B, epolone B], the IC50 in data set [1] (37° C., 5 days, Alamar blue) amounted to 24 µg/mL. Further, in data set [1] (37° C., 5 days), the MIC was found to be 32 µg/mL. Further, the CC50 at 24 h in data set [2] (setting [7]) is 50 µg/mL; in data set [4] (setting [8]), more than 128 µg/mL. The “Keratinocyte MIC” value in data set [3] is more than 128 µg/mL. In addition, in data set [5], the “Fibroblast MIC” value was more than 128 µg/mL.

Consider `Cc1cc(=O)c(O)cc2c1C[C@H]1CC(C)(C)/C=C/C[C@@]3(C)Oc4cc(O)c(=O)cc(C)c4C[C@@H]3C[C@H](O)[C@]1(C)O2` [Pycnidione, pycnidione], for which, in data set [1] (37° C., 5 days), the minimal inhibitory concentration (MIC) turned out to be 8 µg/mL. In data set [1], the IC50 is 6 µg/mL. For the same molecule, the CC50 at 24 h in data set [2] (text of b135, read-out: IC50, toxicity to keratinocyte cells) is 15 µg/mL; in data set [4] it was 11 µg/mL. Further, the “Keratinocyte MIC” value in data set [3] turned out to be 64 µg/mL. Moreover, the “cell line cytotoxicity at lower concentrations (keratinocyte)” value in data set [3] (setting [9]) is on record as “no cell line cytotoxicity was observed”. Besides, the “Fibroblast MIC” value in data set [5] came out at 64 µg/mL. Besides, the “cell line cytotoxicity at lower concentrations (fibroblast)” value in data set [5] (setting [9]) is “no cell line cytotoxicity was observed”. Besides, the “stability of shampoo composition” value in data set [6] is given as “remained stable”.

Consider `[O-]n1ccccc1=S.[O-]n1ccccc1=S.[Zn+2]` [zinc pyrithione, zinc salt of 1-hydroxy-2-pyridinethione, reference compound], for which the “Keratinocyte MIC” value in data set [3] turned out to be 1 µg/mL.
